Compound in assay [1]: Nc1nc2c(ncn2[C@@H]2O[C@H](COP(=O)(O)OP(=O)(O)OP(=O)(O)O)[C@@H](O)[C@H]2O)c(=O)[nH]1 [guanosine triphosphate]
In words: pEC50 of GTP-induced change in protein thermal stability (2D-TPP). The method, then:
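2D thermal proteome profiling in Jurkat crude lysate. Lysate was treated 10 min at room temperature with Na-GTP (0, 0.001, 0.01, 0.1, 0.5 mM), heated to 12 temperatures (42-63.9 °C) for 3 min, and soluble protein was quantified by TMT10 LC-MS/MS. pEC50 is the median over replicates of dose-response fits (FDR-controlled hits).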

Compound in assay [2]: Nc1ncnc2c1ncn2[C@@H]1O[C@H](COP(=O)(O)OP(=O)(O)OP(=O)(O)O)[C@@H](O)[C@H]1O [adenosine triphosphate]
In words: pEC50 of ATP-induced change in protein thermal stability (2D-TPP). A digest of the protocol: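 Soluble protein was quantified by TMT LC-MS/MS after ultracentrifugation of Jurkat crude lysate that had been dosed at five concentrations including vehicle (10 min, room temperature), heated at 12 temperatures of 42–63.9 °C for 3 min, and incubated with NP40 and benzonase at 4 °C for 60 min. Fold changes against vehicle at each temperature were median-normalised, and pEC50 was derived from per-replicate dose-response fits over adjacent temperature pairs. Hits were called with permutation-based false discovery rate control in three independent experiments.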
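Wherever pEC50 of ATP-induced change in protein thermal stability (2D-TPP) is given: lysate dosed with Na-ATP at 0 0.005 0.05 0.5 and 2 mM.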

UniProt Q9NSE4, sequence (Q9NSE4 whole entry): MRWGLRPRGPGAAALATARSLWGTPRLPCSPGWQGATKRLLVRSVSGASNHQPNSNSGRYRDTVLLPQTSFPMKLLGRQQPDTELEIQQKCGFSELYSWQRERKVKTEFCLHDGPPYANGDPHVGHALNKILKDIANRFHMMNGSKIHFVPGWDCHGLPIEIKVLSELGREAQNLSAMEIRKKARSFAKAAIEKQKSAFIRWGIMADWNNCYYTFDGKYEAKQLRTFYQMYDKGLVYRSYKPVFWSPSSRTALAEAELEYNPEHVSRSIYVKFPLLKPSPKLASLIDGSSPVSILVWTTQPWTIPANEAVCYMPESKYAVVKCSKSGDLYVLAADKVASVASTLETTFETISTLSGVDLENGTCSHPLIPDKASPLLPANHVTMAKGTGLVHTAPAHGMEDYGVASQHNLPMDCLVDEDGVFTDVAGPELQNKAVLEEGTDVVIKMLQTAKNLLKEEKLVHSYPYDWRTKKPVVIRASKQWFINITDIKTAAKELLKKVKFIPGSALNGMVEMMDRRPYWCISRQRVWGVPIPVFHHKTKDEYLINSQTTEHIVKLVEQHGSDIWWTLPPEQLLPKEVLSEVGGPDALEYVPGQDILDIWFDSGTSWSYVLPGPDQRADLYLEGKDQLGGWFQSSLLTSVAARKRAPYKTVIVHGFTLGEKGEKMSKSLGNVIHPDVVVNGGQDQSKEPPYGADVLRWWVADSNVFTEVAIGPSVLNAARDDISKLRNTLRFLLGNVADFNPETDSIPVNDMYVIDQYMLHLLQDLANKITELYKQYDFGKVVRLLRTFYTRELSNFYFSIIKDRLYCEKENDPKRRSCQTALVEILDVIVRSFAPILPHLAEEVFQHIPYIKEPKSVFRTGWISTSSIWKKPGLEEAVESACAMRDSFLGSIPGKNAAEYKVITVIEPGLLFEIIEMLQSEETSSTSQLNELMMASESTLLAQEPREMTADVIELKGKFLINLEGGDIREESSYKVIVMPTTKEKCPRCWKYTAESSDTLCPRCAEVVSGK
UniProt O95861, sequence (O95861 whole entry): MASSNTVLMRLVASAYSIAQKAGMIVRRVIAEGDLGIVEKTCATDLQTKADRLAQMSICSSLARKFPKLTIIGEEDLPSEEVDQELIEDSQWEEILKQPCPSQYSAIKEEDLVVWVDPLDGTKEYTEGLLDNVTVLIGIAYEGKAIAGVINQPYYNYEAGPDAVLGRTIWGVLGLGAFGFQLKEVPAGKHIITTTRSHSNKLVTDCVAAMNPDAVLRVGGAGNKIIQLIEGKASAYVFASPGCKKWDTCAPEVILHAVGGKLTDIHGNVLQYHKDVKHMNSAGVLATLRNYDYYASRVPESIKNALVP
UniProt P08754, sequence (P08754 whole entry): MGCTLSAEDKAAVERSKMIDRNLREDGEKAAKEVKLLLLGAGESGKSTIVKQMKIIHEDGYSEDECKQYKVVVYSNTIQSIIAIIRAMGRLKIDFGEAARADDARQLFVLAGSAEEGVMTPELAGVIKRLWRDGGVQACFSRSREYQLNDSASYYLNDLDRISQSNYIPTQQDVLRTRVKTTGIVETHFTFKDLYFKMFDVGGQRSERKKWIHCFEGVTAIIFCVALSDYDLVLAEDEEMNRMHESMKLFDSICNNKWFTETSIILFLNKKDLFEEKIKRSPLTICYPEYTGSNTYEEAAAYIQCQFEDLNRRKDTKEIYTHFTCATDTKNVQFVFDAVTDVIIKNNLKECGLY
UniProt P15170, sequence (P15170 whole entry): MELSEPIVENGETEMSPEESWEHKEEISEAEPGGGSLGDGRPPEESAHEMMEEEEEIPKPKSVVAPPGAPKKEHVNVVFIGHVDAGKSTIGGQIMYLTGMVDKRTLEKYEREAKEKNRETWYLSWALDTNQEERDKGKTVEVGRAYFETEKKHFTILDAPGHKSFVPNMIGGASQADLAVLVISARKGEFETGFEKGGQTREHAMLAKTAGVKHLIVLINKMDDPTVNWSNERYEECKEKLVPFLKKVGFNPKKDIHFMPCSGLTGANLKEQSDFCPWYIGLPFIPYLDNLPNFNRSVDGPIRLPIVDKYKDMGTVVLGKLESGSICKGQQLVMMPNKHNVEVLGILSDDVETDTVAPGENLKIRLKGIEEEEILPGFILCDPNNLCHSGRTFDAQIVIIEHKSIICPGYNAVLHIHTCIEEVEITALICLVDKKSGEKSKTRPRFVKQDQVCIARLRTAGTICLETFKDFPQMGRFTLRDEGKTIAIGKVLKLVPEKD
UniProt Q6DD88, sequence (Q6DD88 whole entry): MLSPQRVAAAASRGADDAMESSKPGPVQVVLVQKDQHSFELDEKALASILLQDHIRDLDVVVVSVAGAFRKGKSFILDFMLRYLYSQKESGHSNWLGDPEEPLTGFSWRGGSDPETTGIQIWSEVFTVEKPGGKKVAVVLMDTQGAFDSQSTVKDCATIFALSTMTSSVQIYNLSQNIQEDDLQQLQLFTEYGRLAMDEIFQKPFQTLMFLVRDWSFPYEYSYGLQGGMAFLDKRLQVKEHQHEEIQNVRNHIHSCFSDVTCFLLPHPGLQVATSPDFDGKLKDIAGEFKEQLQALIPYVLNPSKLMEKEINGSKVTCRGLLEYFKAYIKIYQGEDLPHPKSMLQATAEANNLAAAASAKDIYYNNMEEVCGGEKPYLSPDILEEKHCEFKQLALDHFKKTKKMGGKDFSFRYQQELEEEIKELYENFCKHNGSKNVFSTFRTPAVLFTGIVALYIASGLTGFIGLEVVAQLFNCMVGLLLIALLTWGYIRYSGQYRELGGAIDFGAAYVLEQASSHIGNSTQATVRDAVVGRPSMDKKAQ
UniProt Q8WVX9, sequence (Q8WVX9 whole entry): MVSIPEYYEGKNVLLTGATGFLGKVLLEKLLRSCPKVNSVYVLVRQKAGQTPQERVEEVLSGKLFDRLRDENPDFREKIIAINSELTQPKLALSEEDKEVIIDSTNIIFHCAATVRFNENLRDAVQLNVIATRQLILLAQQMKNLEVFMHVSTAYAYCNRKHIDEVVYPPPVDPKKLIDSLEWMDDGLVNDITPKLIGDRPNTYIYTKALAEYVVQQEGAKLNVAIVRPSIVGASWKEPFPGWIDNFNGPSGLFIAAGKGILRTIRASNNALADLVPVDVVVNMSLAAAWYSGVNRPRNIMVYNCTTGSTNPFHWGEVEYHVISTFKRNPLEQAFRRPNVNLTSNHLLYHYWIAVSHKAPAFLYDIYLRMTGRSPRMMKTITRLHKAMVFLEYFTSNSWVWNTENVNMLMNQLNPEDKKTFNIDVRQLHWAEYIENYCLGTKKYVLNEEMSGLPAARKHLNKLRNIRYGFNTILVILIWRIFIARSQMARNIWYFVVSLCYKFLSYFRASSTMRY
UniProt Q16566, sequence (Q16566 whole entry): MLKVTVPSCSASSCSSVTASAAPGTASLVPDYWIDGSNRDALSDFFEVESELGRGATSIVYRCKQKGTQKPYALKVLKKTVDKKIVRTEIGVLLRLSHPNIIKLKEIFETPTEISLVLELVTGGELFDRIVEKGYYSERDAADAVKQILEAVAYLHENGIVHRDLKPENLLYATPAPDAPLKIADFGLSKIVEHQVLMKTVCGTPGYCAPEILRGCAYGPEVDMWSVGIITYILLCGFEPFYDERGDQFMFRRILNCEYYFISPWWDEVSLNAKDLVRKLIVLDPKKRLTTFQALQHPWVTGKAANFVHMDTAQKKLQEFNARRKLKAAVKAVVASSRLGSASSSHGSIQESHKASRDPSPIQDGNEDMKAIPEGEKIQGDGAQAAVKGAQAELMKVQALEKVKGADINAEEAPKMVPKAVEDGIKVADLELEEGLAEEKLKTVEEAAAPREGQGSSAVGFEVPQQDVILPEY
UniProt Q9H4M9, sequence (Q9H4M9 whole entry): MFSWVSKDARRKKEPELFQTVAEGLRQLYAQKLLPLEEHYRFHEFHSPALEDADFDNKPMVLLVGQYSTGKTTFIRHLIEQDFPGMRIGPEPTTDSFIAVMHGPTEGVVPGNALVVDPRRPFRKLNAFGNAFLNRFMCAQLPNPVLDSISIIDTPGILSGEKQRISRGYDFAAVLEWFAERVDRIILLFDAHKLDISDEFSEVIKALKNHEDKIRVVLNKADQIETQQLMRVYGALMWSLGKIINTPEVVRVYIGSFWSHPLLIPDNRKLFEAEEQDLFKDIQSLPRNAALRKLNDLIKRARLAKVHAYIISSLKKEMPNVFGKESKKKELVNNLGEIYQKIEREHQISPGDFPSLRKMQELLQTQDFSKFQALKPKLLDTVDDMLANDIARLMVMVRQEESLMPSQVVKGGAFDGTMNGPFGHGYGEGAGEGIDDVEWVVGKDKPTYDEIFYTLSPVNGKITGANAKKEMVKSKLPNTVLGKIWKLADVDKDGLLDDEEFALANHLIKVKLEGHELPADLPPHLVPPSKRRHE
UniProt Q8IWD4, sequence (Q8IWD4 whole entry): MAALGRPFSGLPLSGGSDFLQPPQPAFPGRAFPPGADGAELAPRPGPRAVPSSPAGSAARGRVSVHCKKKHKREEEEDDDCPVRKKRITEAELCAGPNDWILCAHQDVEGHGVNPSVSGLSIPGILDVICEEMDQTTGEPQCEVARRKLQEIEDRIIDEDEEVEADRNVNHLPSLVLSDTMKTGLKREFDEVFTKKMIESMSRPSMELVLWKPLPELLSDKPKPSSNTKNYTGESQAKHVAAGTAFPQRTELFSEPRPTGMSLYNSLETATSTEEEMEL
UniProt Q96IJ6, sequence (Q96IJ6 whole entry): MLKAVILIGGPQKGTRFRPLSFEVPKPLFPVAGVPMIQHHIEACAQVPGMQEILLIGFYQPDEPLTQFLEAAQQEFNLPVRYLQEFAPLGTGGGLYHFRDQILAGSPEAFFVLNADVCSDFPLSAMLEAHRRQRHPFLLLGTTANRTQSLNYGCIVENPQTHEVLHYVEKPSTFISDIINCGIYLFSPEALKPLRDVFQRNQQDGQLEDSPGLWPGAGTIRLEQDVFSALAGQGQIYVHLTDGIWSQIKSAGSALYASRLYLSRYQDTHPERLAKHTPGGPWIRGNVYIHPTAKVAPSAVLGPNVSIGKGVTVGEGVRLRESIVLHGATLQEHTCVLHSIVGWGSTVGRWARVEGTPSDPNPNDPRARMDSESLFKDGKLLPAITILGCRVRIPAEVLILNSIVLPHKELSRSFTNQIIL

In general, pEC50 refers to the EC50 on a negative log10 scale, so that one unit is a factor of ten. In the case of “ARPC2 (effect direction: stabilized) (UniProt O15144)”, the pEC50 in assay [1] is 3.83; in assay [2], 4.06.
As for “ATL3 (effect direction: stabilized) (UniProt Q6DD88)”, the pEC50 was 3.44 in assay [1] and 3.19 in assay [2].
For the target “ATP2A2 (effect direction: stabilized) (UniProt P16615)”, the figures for the pEC50 in assay [1] and in assay [2] were 4.31 and 3.33, respectively.
As for “ATP13A1 (effect direction: stabilized) (UniProt Q9HD20)”, the pEC50 in assay [1] was 4.37; in assay [2] it was 4.22.
In the case of “AUP1 (effect direction: stabilized) (UniProt Q9Y679)”, the pEC50 in assay [1] was 3.82; in assay [2], 3.27.
“BCS1L (effect direction: stabilized) (UniProt Q9Y276)”: the pEC50 was less than 3.3 in assay [1] and 4.07 in assay [2].
In the case of “BPNT1 (effect direction: destabilized) (UniProt O95861)”, the figures for the pEC50 in assay [1] and in assay [2] were 3.59 and less than 2.7, respectively.
Take “CAMK4 (effect direction: stabilized) (UniProt Q16566)”: the pEC50 in assay [1] turned out to be 3.77; in assay [2], 3.88.
As for “CCDC117 (effect direction: stabilized) (UniProt Q8IWD4)”, the pEC50 in assay [1] was 3.46; in assay [2] it was 3.47.
For the target “CCT2 (effect direction: stabilized) (UniProt P78371)”, the values for the pEC50 in assay [1] and in assay [2] were 3.56 and 4.34, respectively.
Take “CCT3 (effect direction: stabilized) (UniProt P49368)”: the pEC50 in assay [1] came to 3.62; in assay [2], 4.53.
For “CCT4 (effect direction: stabilized) (UniProt P50991)”, in that order: 3.65 and 3.07.
As for “CLPB (effect direction: stabilized) (UniProt Q9H078)”, the pEC50 in assay [1] came to 4.19; in assay [2], 4.02.
In the same order, the values of “CNP (effect direction: stabilized) (UniProt P09543)” are 3.91 and 3.58.
For the target “CSK (effect direction: stabilized) (UniProt P41240)”, the pEC50 amounted to 4.3 in assay [1] and 3.56 in assay [2].
On to “CSNK2B (effect direction: stabilized) (UniProt P67870)”, for which the pEC50 in assay [1] came to 4.2; in assay [2], 3.84.
As for “DARS (effect direction: stabilized) (UniProt P14868)”, the pEC50 in assay [1] is 3.9; in assay [2], 3.92.
Turning to “DBN1 (effect direction: destabilized) (UniProt Q16643)”, the figures for the pEC50 in assay [1] and in assay [2] were 3.79 and 3.27, respectively.
Consider “DCK (effect direction: stabilized) (UniProt P27707)”, for which the pEC50 worked out at 3.73 in assay [1] and 3.19 in assay [2].
Turning to “DDX46 (effect direction: stabilized) (UniProt Q7L014)”, the pEC50 in assay [1] amounted to 3.86; in assay [2] it was 3.56.
Consider “DGKA (effect direction: stabilized) (UniProt P23743)”, for which the negative-log EC50 (pEC50) in assay [1] came to 3.72; in assay [2] it was 3.3.
On to “DHX15 (effect direction: stabilized) (UniProt O43143)”, for which the pEC50 in assay [1] worked out at 3.93; in assay [2], 3.9.
On to “DHX38 (effect direction: stabilized) (UniProt Q92620)”, for which the figures for the pEC50 in assay [1] and in assay [2] were 3.83 and 4.09, respectively.
For the target “DNM1L (effect direction: stabilized) (UniProt O00429)”, the values for the pEC50 in assay [1] and in assay [2] were 3.83 and 3.38, respectively.
In the case of “DRG2 (effect direction: stabilized) (UniProt P55039)”, the pEC50 in assay [1] came to 4.32; in assay [2], 3.7.
On to “DTYMK (effect direction: stabilized) (UniProt P23919)”, for which the pEC50 stood at 4.06 in assay [1] and 4.17 in assay [2].
“DYNC1LI1 (effect direction: stabilized) (UniProt Q9Y6G9)”: the pEC50 in assay [1] came to 3.6; in assay [2], 3.71.
As to “DYNC1LI2 (effect direction: stabilized) (UniProt O43237)”, the pEC50 in assay [1] was 4.16; in assay [2], 3.69.
For the target “EEF1A1 (effect direction: stabilized) (UniProt P68104)”, the pEC50 stood at 4.26 in assay [1] and 4.11 in assay [2].
On to “EEF2 (effect direction: stabilized) (UniProt P13639)”, for which the values for the pEC50 in assay [1] and in assay [2] were 3.94 and 3.58, respectively.
Turning to “EFTUD2 (effect direction: stabilized) (UniProt Q15029)”, the pEC50 in assay [1] stood at 3.61; in assay [2], 2.76.
For “EHD1 (effect direction: stabilized) (UniProt Q9H4M9)”, the results for the pEC50 in assay [1] and in assay [2] were 4.34 and 3.88, respectively.
Turning to “EIF2B4 (effect direction: stabilized) (UniProt Q9UI10)”, the pEC50 in assay [1] stood at 3.73; in assay [2], 3.65.
For “EIF2B5 (effect direction: stabilized) (UniProt Q13144)”, in that order: 4.12 and 3.77.
On to “FAR1 (effect direction: stabilized) (UniProt Q8WVX9)”, for which the pEC50 in assay [1] came out at 3.59; in assay [2] it was 3.36.
For “GALK1 (effect direction: stabilized) (UniProt P51570)”, the pEC50 in assay [1] is 4.06; in assay [2], 4.02.
Consider “GIMAP6 (effect direction: stabilized) (UniProt Q6P9H5)”, for which the values for the pEC50 in assay [1] and in assay [2] were 3.81 and 4.24, respectively.
On to “GMDS (effect direction: stabilized) (UniProt O60547)”, for which the pEC50 amounted to 4.02 in assay [1] and 2.72 in assay [2].
As to “GMPPA (effect direction: stabilized) (UniProt Q96IJ6)”, the pEC50 in assay [1] stood at 3.36; in assay [2], 3.08.
For “GMPPB (effect direction: stabilized) (UniProt Q9Y5P6)”, in that order: 3.82 and 3.2.
In the same order, the values of “GMPS (effect direction: stabilized) (UniProt P49915)” are 4.07 and 2.85.
As for “GNAI2 (effect direction: stabilized) (UniProt P04899)”, the results for the pEC50 in assay [1] and in assay [2] were 4.51 and 2.85, respectively.
In the case of “GNAI3 (effect direction: stabilized) (UniProt P08754)”, the pEC50 was 4.36 in assay [1] and less than 2.7 in assay [2].
In the same order, the values of “GNL1 (effect direction: stabilized) (UniProt P36915)” are 4.04 and 2.8.
For the target “GSPT1 (effect direction: stabilized) (UniProt P15170)”, the pEC50 is 4.01 in assay [1] and less than 2.7 in assay [2].
On to “GTPBP3 (effect direction: stabilized) (UniProt Q969Y2)”, for which the pEC50 is 4.67 in assay [1] and 3.74 in assay [2].
As to “GUK1 (effect direction: stabilized) (UniProt Q16774)”, the pEC50 in assay [1] is 3.91; in assay [2], 3.78.
“HARS2 (effect direction: stabilized) (UniProt P49590)”: the pEC50 is 3.55 in assay [1] and 4.13 in assay [2].
For “HARS (effect direction: stabilized) (UniProt P12081)”, in that order: 3.69 and 3.97.
For “HMGCS1 (effect direction: stabilized) (UniProt Q01581)”, the pEC50 in assay [1] came to 3.79; in assay [2] it was 3.98.
In the case of “HSPA4L (effect direction: stabilized) (UniProt O95757)”, the pEC50 amounted to 3.83 in assay [1] and 3.54 in assay [2].
Regarding “IARS2 (effect direction: stabilized) (UniProt Q9NSE4)”, the pEC50 in assay [1] came out at 3.71; in assay [2], 4.18.
Turning to “ILK (effect direction: stabilized) (UniProt Q13418)”, the figures for the pEC50 in assay [1] and in assay [2] were 4.17 and 3.37, respectively.
On to “IMPDH2 (effect direction: stabilized) (UniProt P12268)”, for which the results for the pEC50 in assay [1] and in assay [2] were 3.62 and 3.26, respectively.
Take “IPO7 (effect direction: stabilized) (UniProt O95373)”: the pEC50 came out at 3.57 in assay [1] and 3.44 in assay [2].
In the case of “KIF2A (effect direction: stabilized) (UniProt O00139)”, the pEC50 in assay [1] stood at 4.29; in assay [2], 4.21.
With “LONP1 (effect direction: stabilized) (UniProt P36776)”, the pEC50 in assay [1] is 3.91; in assay [2], 4.03.
For the target “MAX (effect direction: destabilized) (UniProt P61244)”, the results for the pEC50 in assay [1] and in assay [2] were 4.65 and 4.13, respectively.

Source of the values: the supplement of paper PMC6411743.
